Experimental data published in PMC4648258 (ACS infectious diseases, 2015).
Values after ≈ are worked out from the molar mass of the structure shown.

Key:
[1] = test system: M. tuberculosis rRMP (ATCC 35838); assay: microbe, parasite or virus in culture; assay type: cell-based, Mycobacterium tuberculosis
[2] = test system: M. tuberculosis thyA overexpression mutant; assay type: cell-based
[3] = test system: M. tuberculosis rKM (ATCC 35827); assay: microbe, parasite or virus in culture; assay type: cell-based, Mycobacterium tuberculosis
[4] = test system: M. tuberculosis rSM (ATCC 35820); assay: microbe, parasite or virus in culture; assay type: cell-based, Mycobacterium tuberculosis
[5] = test system: M. tuberculosis thyX overexpression mutant; assay type: cell-based
[6] = test system: M. tuberculosis rINH (ATCC 35822); assay: microbe, parasite or virus in culture; assay type: cell-based, Mycobacterium tuberculosis
[7] = test system: M. tuberculosis rCS (cycloserine; ATCC35826); assay: microbe, parasite or virus in culture; assay type: cell-based; details: Mycobacterium tuberculosis
[8] = Mycobacterium tuberculosis, ATCC35838
[9] = Mycobacterium tuberculosis, ATCC35827
[10] = Mycobacterium tuberculosis, ATCC35820
[11] = Mycobacterium tuberculosis, ATCC35822

Q: For `CCCc1c2c([nH]c(=O)c1C)C(=O)c1[nH]c(=O)c(C)c(CCC)c1C2=O` [Compound 3, diazaquinomycin A], which MIC ([1]; MABA, rRMP strain) is on record?
A: 0.27 µg/mL (≈ 0.762 µM)

Q: And the “MIC differential versus H37Rv wild-type” value [2]?
A: did not observe a significant differential in the MIC

Q: And the MIC ([3]; MABA, rKM strain)?
A: 0.06 µg/mL (≈ 0.169 µM)

Q: What about the MIC ([4]; MABA, rSM strain) of the same molecule?
A: 0.17 µg/mL (≈ 0.48 µM)

Q: And the “MIC differential versus H37Rv wild-type” value [5]?
A: did not observe a significant differential in the MIC

Q: What about the MIC ([6]; MABA, rINH strain) of the same molecule?
A: 0.13 µg/mL (≈ 0.367 µM)

Q: For `NNC(=O)c1ccncc1` [INH, isoniazid], which MIC [1, 8] is on record?
A: 0.02 µg/mL (≈ 0.146 µM)

Q: And the MIC [3, 9]?
A: 0.03 µg/mL (≈ 0.219 µM)

Q: What about the MIC [4, 10] of the same molecule?
A: 0.02 µg/mL (≈ 0.146 µM)

Q: And the MIC [7]?
A: 0.01 µg/mL (≈ 0.0729 µM)

Q: And the MIC [6, 11]?
A: > 2 µg/mL

Q: Which results are given for `NC[C@H]1O[C@H](O[C@H]2[C@H](O)[C@@H](O[C@H]3O[C@H](CO)[C@@H](O)[C@H](N)[C@H]3O)[C@H](N)C[C@@H]2N)[C@H](O)[C@@H](O)[C@@H]1O` [KM, kanamycin]?
A: MIC ([3]; MABA, rKM strain): >2.00 µg/mL; MIC ([4]; MABA, rSM strain): 0.95 µg/mL (≈ 1.96 µM); MIC ([6]; MABA, rINH strain): 0.95 µg/mL (≈ 1.96 µM)

Q: With `O=[N+]([O-])c1cn2c(n1)OC[C@@H](OCc1ccc(OC(F)(F)F)cc1)C2` [PA824] as the molecule, how does the MIC [1, 8] read?
A: 0.03 µg/mL (≈ 0.0835 µM)

Q: And the MIC [3, 9]?
A: 0.19 µg/mL (≈ 0.529 µM)

Q: What about the MIC [4, 10] of the same molecule?
A: 0.11 µg/mL (≈ 0.306 µM)

Q: And the MIC [6, 11]?
A: 0.03 µg/mL (≈ 0.0835 µM)

Q: Which MIC [1, 8] does the source give for `CO[C@H]1/C=C/O[C@@]2(C)Oc3c(C)c(O)c4c(O)c(c(/C=N/N5CCN(C)CC5)c(O)c4c3C2=O)NC(=O)/C(C)=C\C=C\[C@H](C)[C@H](O)[C@@H](C)[C@@H](O)[C@@H](C)[C@H](OC(C)=O)[C@@H]1C` [RMP, rifampicin] here?
A: > 2 µg/mL

Q: What about the MIC [3, 9] of the same molecule?
A: < 0.01 µg/mL

Q: What about the MIC [4, 10] of the same molecule?
A: 0.03 µg/mL (≈ 0.0365 µM)

Q: And the MIC [7]?
A: < 0.01 µg/mL

Q: What about the MIC [6, 11] of the same molecule?
A: 0.01 µg/mL (≈ 0.0122 µM)

Q: With `[H]/N=C(/N)N[C@H]1[C@H](O)[C@@H](O)[C@H](O[C@@H]2O[C@@H](C)[C@](O)(C=O)[C@H]2O[C@@H]2O[C@@H](CO)[C@H](O)[C@@H](O)[C@@H]2NC)[C@@H](N/C(N)=N\[H])[C@@H]1O` [SM, streptomycin] as the molecule, how does the MIC [3, 9] read?
A: 1.2 µg/mL (≈ 2.06 µM)

Q: What about the MIC [4, 10] of the same molecule?
A: > 2 µg/mL

Q: What about the MIC [6, 11] of the same molecule?
A: 0.46 µg/mL (≈ 0.791 µM)
